The target in the test is NR1/NR2B (Homo sapiens (Human), UniProt Q05586+Q13224). Kind of test: Cell assay: FDSS Ca2+ influx inhibition in HEK293 cells expressing NR1/NR2B.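 Also: Fluo-8 Ca2+ signal read on Hamamatsu FDSS 6000 after glutamate, glycine and Ca2+ challenge following 10 min compound preincubation, end/baseline fluorescence ratio compared with MK801 control.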 To be noted: Ca2+ influx.
[1] abbreviates: Binned Activity, HEK293 cells expressing NR1/NR2B, binned NR2B NAM IC50.
Where [2] appears, read: NR2B NAM IC50, HEK293 cells expressing NR1/NR2B.

Sequence of NR1/NR2B (Q13224 27-1484, other chains not shown): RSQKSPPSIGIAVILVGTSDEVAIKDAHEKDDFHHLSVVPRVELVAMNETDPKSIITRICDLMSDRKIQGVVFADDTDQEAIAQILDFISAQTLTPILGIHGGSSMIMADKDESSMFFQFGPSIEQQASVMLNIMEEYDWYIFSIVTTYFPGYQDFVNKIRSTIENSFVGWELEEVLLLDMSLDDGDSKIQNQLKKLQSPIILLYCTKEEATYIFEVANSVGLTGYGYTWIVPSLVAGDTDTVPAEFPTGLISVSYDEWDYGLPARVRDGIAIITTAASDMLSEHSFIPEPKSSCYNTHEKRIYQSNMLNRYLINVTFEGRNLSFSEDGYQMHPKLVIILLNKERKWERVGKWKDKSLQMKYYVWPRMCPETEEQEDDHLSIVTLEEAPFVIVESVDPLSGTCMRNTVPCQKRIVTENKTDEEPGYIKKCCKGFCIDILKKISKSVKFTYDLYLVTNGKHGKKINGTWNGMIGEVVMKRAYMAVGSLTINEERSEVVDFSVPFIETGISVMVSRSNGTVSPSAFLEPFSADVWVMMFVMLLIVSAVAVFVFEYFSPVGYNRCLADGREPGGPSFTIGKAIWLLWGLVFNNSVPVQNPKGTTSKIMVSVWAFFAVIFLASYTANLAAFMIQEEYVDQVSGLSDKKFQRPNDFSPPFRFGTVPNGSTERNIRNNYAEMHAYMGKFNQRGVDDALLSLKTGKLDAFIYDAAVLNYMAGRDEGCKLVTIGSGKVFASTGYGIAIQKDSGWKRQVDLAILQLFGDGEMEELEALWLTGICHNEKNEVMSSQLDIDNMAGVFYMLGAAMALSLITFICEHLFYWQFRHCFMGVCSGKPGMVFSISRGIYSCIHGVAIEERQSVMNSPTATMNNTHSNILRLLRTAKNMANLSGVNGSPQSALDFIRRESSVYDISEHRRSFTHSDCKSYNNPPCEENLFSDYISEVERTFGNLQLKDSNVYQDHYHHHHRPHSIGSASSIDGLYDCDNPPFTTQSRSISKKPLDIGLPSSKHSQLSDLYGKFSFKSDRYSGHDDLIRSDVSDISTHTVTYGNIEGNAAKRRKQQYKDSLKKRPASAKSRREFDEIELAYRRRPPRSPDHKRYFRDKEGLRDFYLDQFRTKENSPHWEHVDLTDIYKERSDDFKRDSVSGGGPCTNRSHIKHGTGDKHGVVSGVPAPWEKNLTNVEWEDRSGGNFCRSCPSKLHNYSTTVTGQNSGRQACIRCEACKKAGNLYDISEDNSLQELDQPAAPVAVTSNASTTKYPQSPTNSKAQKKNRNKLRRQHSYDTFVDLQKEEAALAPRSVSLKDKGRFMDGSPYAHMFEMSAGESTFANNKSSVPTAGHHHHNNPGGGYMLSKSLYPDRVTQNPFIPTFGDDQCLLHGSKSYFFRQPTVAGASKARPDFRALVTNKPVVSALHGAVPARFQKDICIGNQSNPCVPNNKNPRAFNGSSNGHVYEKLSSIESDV
Procedure: Cell Culture and plating: HEK293 cells expressing NR1/NR2B (Chantest, Cleveland, Ohio) were grown to 70-80% confluency as an adherent monolayer in standard tissue culture flasks at 37° C., 5% CO2 per supplier's instructions. NR2B expression was induced by incubation with 0.3-0.4 μg/ml tetracycline in the presence of 4 mM ARL-15896 for 18-24 hours under the same growth conditions, then transferred to 30° C. for another 3-5 hours.
After induction, cell culture medium was removed and cells were rinsed once with Ca^2+ and Mg^2+-free Dulbecco's phosphate buffered saline. Cells were then removed from the flask using TrypLE™ Express (Life Technologies) according to the manufacturer's instructions and collected to 50 ml centrifuge tubes. Following two washes in Ca^2+/Mg^2+-free HBSS with 20 mM HEPES (HHnoCa), cells were counted and viability assessed using trypan blue. To load cells with Ca^2+-sensitive dye, they were resuspended in fluo-8 plus Component B (AAT Bioquest Products) diluted in HHnoCa and incubated 15 minutes at 37° C., followed by 30 minutes at room temp (in dark). Cells were then washed and resuspended in HHnoCa to remove extracellular dye and plated in 384-well plates (Falcon, uncoated) at 20,000-30,000 cells/well in a final volume of 25 μl/well.
FDSS Assay: To each well of the plate, 10 μL test compound, control (MK801) or HHnoCa buffer was added to a final concentration of 10 μM with a final concentration of DMSO of 0.1%. Following 10 minutes pre-incubation in the dark, plates are loaded onto the Hamamatsu FDSS 6000. After collecting baseline fluorescence images, 3 μM glutamate, 3 glycine, and 1 mM Ca^2+ in HHnoCa buffer is added to each well, and Ca^2+ is recorded for 3 minutes. Data were processed by computing ratio of fluorescence at the end of data collection to baseline fluorescence to assess degree of Ca′ influx inhibition relative to that observed in MK801.

For the molecule `Oc1ccc(C(O)CN2C[C@@H]3C[C@@](O)(Cc4ccc(F)cc4F)C[C@@H]3C2)cc1` (mixture of isomers) [Example 245, rac-5-(2,4-difluorobenzyl)-2-(2-hydroxy-2-(4-hydroxyphenyl)ethyl) octahydrocyclopenta[c] pyrrol-5-ol], the IC50 is less than 100 nM under setting [1] and 23.8 nM under setting [2].
Under setting [1], `COc1ccccc1CNC(=O)N1C[C@@H]2C[C@@](O)(c3ccccc3)C[C@@H]2C1` [Example 21, 5-hydroxy-N-[(2-methoxyphenyl)methyl]-5-phenyl-octahydrocyclopenta[c] pyrrole-2-carboxamide] came in with an IC50 greater than 10000 nM.
Take `CC(O)(CN1CC2CC(O)(Cc3ccccc3)CC2C1)c1ccc(O)cc1` (racemic) [Example 280, rac-(3aR,5R,6aS)-5-benzyl-2-[2-hydroxy-2-(4-hydroxyphenyl)propyl]-octahydrocyclopenta[c] pyrrol-5-ol]: the IC50 by setting is: under setting [1], less than 100 nM; under setting [2], 43 nM.
In the case of `Oc1ccc(C(O)CN2C[C@H]3CN(Cc4ccccc4)C[C@H]3C2)nc1` (mixture of isomers) [Example 329, rac-6-(2-(5-benzylhexahydropyrrolo [3,4-c]pyrrol-2(1H)-yl)-1-hydroxyethyl) pyridin-3-ol], under setting [2], the IC50 was determined as 380 nM. That is a sub-micromolar value.
With `COC(=O)c1ccc(NC(=O)N2C[C@@H]3C[C@@](O)(c4ccc(C(C)(C)C)cc4)C[C@@H]3C2)cc1` [Example 50], the IC50 under setting [1] is greater than 10000 nM.
Under setting [1], `Cc1ccccc1[C@]1(O)C[C@H]2CN(C(=O)Nc3cccc(C#N)c3)C[C@H]2C1` [Example 31, N-(3-cyanophenyl)-5-hydroxy-5-(2-methylphenyl)-octahydrocyclopenta[c] pyrrole-2-carboxamide] came in with an IC50 greater than 10000 nM.
In the case of `COc1cccc([C@]2(O)C[C@H]3CN(C(=O)Nc4cccc(C(F)(F)F)c4)C[C@H]3C2)c1` [Example 16], the IC50 is greater than 10000 nM under setting [1] and no less than 10000 nM under setting [2].
For the molecule `Oc1ccc(C(O)CN2C[C@@H]3C[C@@](O)(Cc4ccc(F)cc4F)C[C@@H]3C2)nc1` (mixture of isomers) [Example 233, rac-(3aR,5r,6aS)-5-(2,4-difluorobenzyl)-2-(2-hydroxy-2-(5-hydroxypyridin-2-yl)ethyl)octahydrocyclo-penta[c]pyrrol-5-ol], the IC50 was less than 100 nM under setting [1] and 29.9 nM under setting [2].
The molecule `Oc1ccc(C(O)CN2C[C@@H]3C[C@@](O)(CC4CC4)C[C@@H]3C2)cc1` (mixture of isomers) [Example 211, rac-(3aR,5r,6aS)-5-(cyclopropylmethyl)-2-(2-hydroxy-2-(4-hydroxyphenyl)ethyl) octahydrocyclopenta [c]pyrrol-5-ol] showed an IC50 under setting [1] greater than 10000 nM and an IC50 under setting [2] of no less than 10000 nM.
With `Oc1ccc(C(O)CN2C[C@H]3C[C@H](Cc4ccccc4)C[C@H]3C2)cc1` (mixture of isomers) [Example 306, rac-4-{2-[(3aR,5R,6aS)-5-benzyl-octahydrocyclopenta[c]pyrrol-2-yl]-1-hydroxyethyl}phenol], the IC50 reads like this: under setting [1], less than 100 nM; under setting [2], 11.7 nM.
In the case of `CC(C(=O)c1ccc(O)cc1)N1C[C@@H]2C[C@@](O)(c3ccccc3)C[C@@H]2C1` (mixture of isomers) [Example 90, rac-2-(5-hydroxy-5-phenylhexahydrocyclo-penta[c]pyrrol-2(1H)-yl)-1-(4-hydroxyphenyl)propan-1-one], the IC50 runs as follows: under setting [1], greater than 10000 nM; under setting [2], no less than 10000 nM.
Turning to `COc1cccc([C@]2(O)C[C@H]3CN(CC(O)c4ccc(Cl)cc4Cl)C[C@H]3C2)c1` (mixture of isomers) [Example 74, rac-2-[2-(2,4-dichlorophenyl)-2-hydroxyethyl]-5-(3-methoxyphenyl)-octahydrocyclopenta[c] pyrrol-5-ol], the IC50 runs as follows: under setting [1], greater than 10000 nM; under setting [2], no less than 10000 nM.
Taken in the same sequence, the figures for `Oc1ccc(C(O)CN2C[C@H]3CC(Cc4ccccc4)C[C@H]3C2)cc1` (mixture of isomers) [Example 300, rac-4-(2-((3aR,6aS)-5-benzylhexahydrocyclo-penta[c]pyrrol-2(1H)-yl)-1-hydroxyethyl) phenol] were less than 100 nM and 13.9 nM.
Under setting [2], `COc1ccc(C[C@]2(O)C[C@H]3CN(CC(O)c4ccc(O)cc4)C[C@H]3C2)cc1` (mixture of isomers) [Example 189, rac-(3aR,5r,6aS)-2-(2-hydroxy-2-(4-hydroxyphenyl)ethyl)-5-(4-methoxy-benzyl)octahydro-cyclopenta[c]pyrrol-5-ol] displayed an IC50 of 47.4 nM.
Under setting [2], `CO[C@@]1(Cc2ccccc2)C[C@H]2CN(CC(O)c3ccc(O)cc3)C[C@H]2C1` (mixture of isomers) [Example 176, rac-4-(2-((3aR,5r,6aS)-5-benzyl-5-methoxyhexahydrocyclo-penta[c]pyrrol-2(1H)-yl)-1-hydroxyethyl)phenol] came in with an IC50 of 32.4 nM. This IC50 and that of the molecule before are within 1.5-fold of each other.
Take `[2H]C(O)(CN1C[C@@H]2C[C@@](O)(Cc3ccccc3)C[C@@H]2C1)c1ccc(O)cc1` (mixture of isomers) [Example 281, deuterated rac-(3aR,6aS)-5-benzyl-2-((S)-2-hydroxy-2-(4-hydroxyphenyl)ethyl) octahydrocyclopenta [c]pyrrol-5-ol]: the IC50 runs as follows: under setting [1], less than 100 nM; under setting [2], 17.4 nM.
Take `Oc1ccc(C(O)CN2C[C@@H]3C[C@@](O)(Cc4cccs4)C[C@@H]3C2)cc1` (mixture of isomers) [Example 204, rac-(3aR,5r,6aS)-2-(2-hydroxy-2-(4-hydroxyphenyl)ethyl)-5-(thiophen-2-ylmethyl)octahydrocyclo-penta[c]pyrrol-5-ol]: the IC50 under setting [2] amounted to 12.6 nM.
In turn, `O=C(Nc1ccc(Cl)c(C(F)(F)F)c1)N1C[C@@H]2C[C@@](O)(c3ccc(F)cc3)C[C@@H]2C1` [Example 43] returned an IC50 under setting [1] greater than 10000 nM and an IC50 under setting [2] of no less than 10000 nM.
On to `O=C(Nc1cccc(Cl)c1)N1C[C@@H]2C[C@@](O)(c3ccc(F)cc3)C[C@@H]2C1` [Example 39], for which the IC50 was greater than 10000 nM under setting [1] and no less than 10000 nM under setting [2].
`OC(CN1C[C@@H]2C[C@@](O)(Cc3ccccc3)C[C@@H]2C1)c1cccc(C(F)(F)F)c1` (mixture of isomers) [Example 288, rac-(3aR,5r,6aS)-benzyl-2-(2-hydroxy-2-(3-(trifluoromethyl)phenyl)ethyl)octahydrocyclo-penta[c]pyrrol-5-ol]: the IC50 is greater than 10000 nM under setting [1] and no less than 10000 nM under setting [2].
`N#Cc1cccc(NC(=O)N2C[C@@H]3C[C@@](O)(c4ccc(F)cc4)C[C@@H]3C2)c1` [Example 40] had an IC50 under setting [1] greater than 10000 nM.
`Oc1ccc(C(O)CN2C[C@@H]3C[C@@](O)(Cc4c(F)cccc4F)C[C@@H]3C2)nc1` (mixture of isomers) [Example 240, rac-6-{2-[(3aR,5R,6aS)-5-[(2,6-difluorophenyl)methyl]-5-hydroxy-octahydrocyclopenta[c]pyrrol-2-yl]-1-hydroxyethyl}pyridin-3-ol] displayed an IC50 under setting [2] of 69.6 nM.
With `COc1ccc(NC(=O)N2C[C@@H]3C[C@@](O)(c4ccccc4C)C[C@@H]3C2)cc1` [Example 8], the IC50 reads like this: under setting [1], greater than 10000 nM; under setting [2], no less than 10000 nM.
In the case of `Cc1ccc(NC(=O)N2C[C@@H]3C[C@@](O)(c4ccccc4)C[C@@H]3C2)c(C)c1` [Example 47], the IC50 under setting [1] was greater than 10000 nM and the IC50 under setting [2] was no less than 10000 nM.
In the case of `OC(CN1C[C@@H]2C[C@@](O)(Cc3ccccc3)C[C@@H]2C1)c1ccc2[nH]nnc2c1` (mixture of isomers) [Example 186, rac-(3aR,5R,6aS)-2-[2-(1H-1,2,3-benzotriazol-5-yl)-2-hydroxyethyl]-5-benzyl-octahydrocyclopenta[c] pyrrol-5-ol], the IC50 under setting [1] was in the range of 100 to 1000 nM and the half-maximal inhibitory concentration (IC50) under setting [2] came to 748 nM.
Regarding `OC(CN1C[C@@H]2C[C@@](O)(Cc3ccccc3)C[C@@H]2C1)c1cnc(OCc2ccccc2)cn1` (mixture of isomers) [Example 163, rac-(3aR,5r,6aS)-5-benzyl-2-(2-(5-(benzyloxy)pyrazin-2-yl)-2-hydroxyethyl)octahydro-cyclopenta[c]pyrrol-5-ol], the IC50 is greater than 10000 nM under setting [1] and no less than 10000 nM under setting [2].
For `Oc1ccc(C(O)CN2C[C@@H]3C[C@@](O)(Cc4ccc(Cl)cc4)C[C@@H]3C2)nc1` (mixture of isomers) [Example 223, rac-(3aR,5r,6aS)-5-(4-chlorobenzyl)-2-(2-hydroxy-2-(5-hydroxypyridin-2-yl)ethyl)octahydrocyclo-penta[c]pyrrol-5-ol], the IC50 is less than 100 nM under setting [1] and 11.5 nM under setting [2].
Take `Cc1ccccc1[C@]1(O)C[C@H]2CN(C(C)C(O)c3ccc(O)cc3)C[C@H]2C1` (mixture of isomers) [Example 95, rac-2-[1-hydroxy-1-(4-hydroxyphenyl)propan-2-yl]-5-(2-methylphenyl)-octahydrocyclopenta[c] pyrrol-5-ol]: the IC50 runs as follows: under setting [1], greater than 10000 nM; under setting [2], no less than 10000 nM.
On to `Cc1ccccc1[C@]1(O)C[C@H]2CN(CC(O)c3cccc(C(F)(F)F)c3)C[C@H]2C1` (mixture of isomers) [Example 72, rac-2-{2-hydroxy-2-[3-(trifluoromethyl)phenyl]ethyl}-5-(2-methylphenyl)-octahydrocyclopenta[c] pyrrol-5-ol], for which the IC50 runs as follows: under setting [1], greater than 10000 nM; under setting [2], no less than 10000 nM.
For the molecule `OC(CN1C[C@H]2CC(Cc3ccccc3)C[C@H]2C1)c1cccc(C(F)(F)F)c1` (mixture of isomers) [Example 309, rac-2-((3aR,6aS)-5-benzylhexahydrocyclo-penta[c]pyrrol-2(1H)-yl)-1-(3-(trifluoromethyl)phenyl) ethanol], the IC50 is greater than 10000 nM under setting [1] and no less than 10000 nM under setting [2].
As to `Cc1ccc(NC(=O)N2C[C@@H]3C[C@@](O)(c4ccccc4C)C[C@@H]3C2)cc1` [Example 9], the IC50 under setting [1] was greater than 10000 nM.
Turning to `Oc1ccc(C(O)CN2C[C@@H]3C[C@@](O)(Cc4ccccc4Cl)C[C@@H]3C2)nc1` (mixture of isomers) [Example 246, rac-(3aR,5r,6aS)-5-(2-chlorobenzyl)-2-(2-hydroxy-2-(5-hydroxypyridin-2-yl)ethyl)octahydrocyclo-penta[c]pyrrol-5-ol], the IC50 under setting [2] amounted to 50.3 nM.
As for `COc1cccc([C@]2(O)C[C@H]3CN(CC(O)c4cccc(C(F)(F)F)c4)C[C@H]3C2)c1` (mixture of isomers) [Example 73, rac-2-{2-hydroxy-2-[3-(trifluoromethyl)phenyl]ethyl}-5-(3-methoxyphenyl)-octahydrocyclopenta[c] pyrrol-5-ol], the IC50 by setting is: under setting [1], greater than 10000 nM; under setting [2], no less than 10000 nM.

In general, IC50 refers to the point on the concentration scale where inhibition reaches its midpoint. A high value points to weaker potency.

The record behind these values is patent US10052306B2 (LUC THERAPEUTICS, INC., priority 2013, dated 2018).
